Test results published in PubChem BioAssay (NCI).
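Interpolation was linear, between the two tested concentrations surrounding the appropriate level; five concentrations were tested over 48 hours in 96-well plates. At the GI50, growth is halved. TGI is the concentration that stops growth completely.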

How the values were obtained:
Experiment in all cases: NCI anticancer screen, dose series, 48 h
MCF7 breast = system: MCF7 breast
OVCAR-8 ovarian = system: OVCAR-8 ovarian
IGROV1 ovarian = system: IGROV1 ovarian
BT-549 breast = system: BT-549 breast
HS 578T breast = system: HS 578T breast
NCI-H23 lung = system: NCI-H23 lung
UO-31 renal = system: UO-31 renal
HT29 colon = system: HT29 colon
SF-295 CNS = system: SF-295 CNS
786-0 renal = system: 786-0 renal
RPMI-8226 leukemia = system: RPMI-8226 leukemia
RXF 393 renal = system: RXF 393 renal
NCI-H226 lung = system: NCI-H226 lung
U251 CNS = system: U251 CNS
NCI-H522 lung = system: NCI-H522 lung
SR leukemia = system: SR leukemia
CAKI-1 renal = system: CAKI-1 renal
HL-60(TB) leukemia = system: HL-60(TB) leukemia
A498 renal = system: A498 renal

Row | Compound | TGI (MCF7 breast) [µM] | TGI (OVCAR-8 ovarian) [µM] | TGI (IGROV1 ovarian) [µM] | TGI (BT-549 breast) [µM] | TGI (HS 578T breast) [µM] | TGI (NCI-H23 lung) [µM] | TGI (UO-31 renal) [µM] | TGI (HT29 colon) [µM] | TGI (SF-295 CNS) [µM] | TGI (786-0 renal) [µM] | TGI (RPMI-8226 leukemia) [µM] | TGI (RXF 393 renal) [µM] | TGI (NCI-H226 lung) [µM] | TGI (U251 CNS) [µM] | TGI (NCI-H522 lung) [µM] | TGI (SR leukemia) [µM] | TGI (CAKI-1 renal) [µM] | TGI (HL-60(TB) leukemia) [µM] | TGI (A498 renal) [µM] | GI50 (RPMI-8226 leukemia) [µM]
1 | CC(=O)OCCOCCN1CCN(c2c(O)c3c(c(O)c2Cl)C(=O)C=CC3=O)CC1 | 0.976 | 2.66 | 3.04 | 2.21 | 7.59 | 1.98 | 2.47 | 2.17 | 3.72 | 0.913 | 1.42 | 1.93 | 5.89 | 4.1 | 0.583 | 4.54 | 0.878 | 0.238 | 3.56 | –
2 | Cc1nc2cccc([N+](=O)[O-])c2n1CCCN(C)C | > 100 | > 100 | > 100 | > 100 | > 100 | > 100 | > 100 | > 100 | > 100 | > 100 | > 100 | > 100 | > 100 | > 100 | > 100 | > 100 | > 100 | > 100 | > 100 | –
3 | Cc1cccc(C(=O)O)c1CC1NCCC2c3ccccc3NC12 (stereo unspecified) | > 100 | > 100 | > 100 | > 100 | > 100 | > 100 | > 100 | > 100 | > 100 | > 100 | > 100 | > 100 | > 100 | > 100 | > 100 | > 100 | > 100 | > 100 | > 100 | –
4 | C/C(=C1\C(=O)C(c2ccccc2)N(c2ccccc2)C1=O)c1ccc(Cl)cc1 (stereo unspecified) | > 100 | – | 40.5 | 49.2 | 40.9 | 31.9 | 45.8 | 31.2 | 74.9 | 38.6 | 38.1 | 79.2 | 43 | 29.4 | 38.7 | 53.2 | 48.4 | 69.1 | 33.1 | –
5 | CC[C@H]1C=CCC[C@@]2(C[C@@H]3CC[C@@H]4[C@H](C(=O)OCCCCCCCCCCCCCCCC(=O)N(CCCNC(C)=O)C[C@H](CCNC(C)=O)OC(C)=O)[C@]5(CCC[C@@H](C)O5)NC(=[N+]34)N2)O1 | 1.37 | 2.48 | 1.9 | 2.93 | 1.72 | 2.93 | 2.46 | 0.998 | 1.46 | 0.426 | 0.242 | 1.02 | 1.88 | 1.11 | 0.287 | 0.416 | 1.86 | 1.34 | 1.09 | 0.0406
6 | CC(=O)OC1OC(c2ccoc2)C[C@@]12C1CCC3O[C@]3(C)[C@]1(C)C[C@H](OC(C)=O)[C@H]2C (stereo partly specified) | > 75 | > 75 | > 75 | > 75 | > 75 | > 75 | > 75 | > 75 | > 75 | > 75 | > 75 | > 75 | > 75 | > 75 | > 75 | > 75 | > 75 | > 75 | > 75 | –
7 | Nc1ccc(OCCCc2c(-c3ccccc3)nc(N)[nH]c2=O)cc1 | > 100 | > 100 | > 100 | > 100 | > 100 | > 100 | > 100 | > 100 | > 100 | > 100 | > 100 | > 100 | > 100 | > 100 | > 100 | > 100 | > 100 | > 100 | > 100 | –
8 | CC(=O)c1ccccc1NS(=O)(=O)c1ccc2nc(C)n(NS(=O)(=O)c3ccccc3C(C)=O)c(=O)c2c1 | > 100 | > 100 | > 100 | > 100 | > 100 | > 100 | > 100 | > 100 | > 100 | > 100 | > 100 | > 100 | > 100 | > 100 | > 100 | > 100 | > 100 | > 100 | > 100 | –
9 | CNc1nc2c(C)ccc3[nH]c(N(C)C)nc3c-2n1 | > 100 | > 100 | > 100 | > 100 | > 100 | > 100 | > 100 | > 100 | > 100 | > 100 | 61.2 | > 100 | > 100 | > 100 | > 100 | 97.9 | > 100 | 69.5 | > 100 | –
10 | COc1cc(Nc2nc3ccccc3nc2C(C)C)cc(OC)c1OC | > 100 | > 100 | > 100 | > 100 | > 100 | > 100 | > 100 | > 100 | > 100 | > 100 | > 100 | > 100 | > 100 | > 100 | > 100 | > 100 | > 100 | > 100 | > 100 | –
11 | CCOC(=O)N1N(c2ccccc2)C(=O)C1(c1ccccc1)c1ccccc1 | > 100 | > 100 | > 100 | > 100 | > 100 | > 100 | > 100 | > 100 | > 100 | > 100 | 83.5 | > 100 | > 100 | > 100 | > 100 | > 100 | > 100 | > 100 | > 100 | –
12 | CC(=O)C1=C(C)N(c2ccccc2)C2(O)C=CC(=O)C3=C(O)c4ccccc4C(=O)C312 (stereo unspecified) | > 100 | 34.3 | 34.3 | 31.8 | > 100 | 46.3 | 33.7 | > 100 | 38.5 | > 100 | > 100 | 36.6 | 59.2 | 40.7 | 36.4 | > 100 | 33.3 | 74.1 | 39.4 | –
13 | Cc1cc(C)c2c(=O)cc(-c3ccc4ccccc4c3)[nH]c2n1 | > 100 | > 100 | 99.7 | > 100 | > 100 | > 100 | > 100 | 59.8 | > 93 | > 100 | 27.8 | > 100 | > 100 | 65.7 | 72.5 | 18.6 | > 100 | 16.4 | 24.1 | –
14 | NC(=O)CNC(=O)[C@@H]1C[C@@H](OCCC(=O)O)CN1C(=O)OCc1ccccc1 | > 100 | – | > 100 | > 100 | > 100 | > 100 | > 100 | > 100 | > 100 | > 100 | > 100 | > 100 | > 100 | > 100 | > 100 | > 100 | – | > 100 | > 100 | –
15 | O=c1c2c3c(sc2nc2n1N=C(c1ccc([N+](=O)[O-])cc1)CS2)CCCC3 | > 100 | > 100 | > 100 | > 100 | > 100 | > 100 | > 100 | > 100 | > 100 | > 100 | > 100 | > 100 | > 100 | > 100 | > 100 | > 100 | > 100 | > 100 | > 100 | –
16 | C[N+](C)(C)C(C1=CCCC1=O)c1ccccc1 (stereo unspecified) | 56.7 | 65.6 | > 100 | 95.5 | 66.3 | > 100 | > 100 | 56 | > 100 | 39.9 | 44.2 | 41.8 | > 100 | 42.7 | 35 | 44.5 | 63.9 | 66.5 | > 100 | –
17 | O=S(=O)(/N=C(\NO)Nc1ccc(Cl)cc1)C1CC=C(c2ccon2)S1 (stereo unspecified) | > 100 | > 100 | > 72.3 | > 63 | > 66.3 | > 100 | 81.6 | > 100 | > 100 | > 100 | > 50.3 | 87.3 | > 79.8 | > 100 | 12.8 | 19.8 | > 100 | 35.6 | > 75.9 | –
18 | CCCCN1C(=O)CS/C1=N/Nc1nc2c([nH]1)c(=O)n(C)c(=O)n2C | 31.3 | – | > 100 | > 100 | > 100 | > 100 | > 100 | > 100 | 53.1 | 41.7 | > 100 | > 100 | > 100 | > 100 | > 100 | 38.1 | > 100 | > 100 | > 100 | –
19 | Nc1[nH]c(=S)c2c(N)n[nH]c2c1C(=O)Nc1ccc(Cl)cc1 | > 100 | > 100 | > 100 | > 100 | > 100 | – | > 100 | > 100 | – | > 100 | > 100 | > 100 | > 100 | > 100 | > 100 | > 100 | > 100 | > 100 | > 100 | –
